Results as given in patent publication US20260207585A1, “METHODS AND COMPOSITIONS FOR THE TREATMENT OF PARKINSON'S DISEASE, HUNTINGTON'S DISEASE, AMYOTROPHIC LATERAL SCLEROSIS, AND LEARNING DISORDERS” (Cedars-Sinai Medical Center, priority 2022, published 2026).
Read-outs that look alike come from different tables or passages of the source.

Experiments:
Assay type in all cases: biochemical
METTL21A = METTL21A (Homo sapiens, UniProt Q8WXB1); experiment: Methyltransferase inhibition panel: METTL21A
Procedure: (§1) The ability of ETP69 to inhibit methyltransferases was tested.

PRMT5 (C449S)/MEP50 = PRMT5 (C449S)/MEP50 (Homo sapiens, UniProt O14744, C449S); experiment: Methyltransferase inhibition panel: PRMT5 (C449S)/MEP50
Procedure: as §1

SUV39H1 = molecular target: T1, SUV39H1 (Homo sapiens, UniProt O43463); experiment: Methyltransferase inhibition panel: SUV39H1
T1 sequence (O43463 1-412): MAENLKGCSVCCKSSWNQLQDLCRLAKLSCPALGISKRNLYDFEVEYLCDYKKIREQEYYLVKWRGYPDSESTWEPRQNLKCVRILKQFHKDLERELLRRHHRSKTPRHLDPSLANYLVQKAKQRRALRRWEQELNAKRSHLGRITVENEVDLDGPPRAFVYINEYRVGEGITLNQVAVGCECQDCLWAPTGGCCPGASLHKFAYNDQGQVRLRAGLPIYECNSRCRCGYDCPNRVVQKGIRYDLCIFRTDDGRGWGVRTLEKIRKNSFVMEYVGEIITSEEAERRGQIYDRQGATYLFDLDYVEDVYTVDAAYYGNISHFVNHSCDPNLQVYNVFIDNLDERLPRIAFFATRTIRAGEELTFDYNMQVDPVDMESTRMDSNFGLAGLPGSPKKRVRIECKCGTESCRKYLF
Procedure: as §1

NRMT1 = molecular target: T2, NRMT1 (Homo sapiens, UniProt Q9BV86); experiment: Methyltransferase inhibition panel: NRMT1
T2 sequence (Q9BV86 1-223): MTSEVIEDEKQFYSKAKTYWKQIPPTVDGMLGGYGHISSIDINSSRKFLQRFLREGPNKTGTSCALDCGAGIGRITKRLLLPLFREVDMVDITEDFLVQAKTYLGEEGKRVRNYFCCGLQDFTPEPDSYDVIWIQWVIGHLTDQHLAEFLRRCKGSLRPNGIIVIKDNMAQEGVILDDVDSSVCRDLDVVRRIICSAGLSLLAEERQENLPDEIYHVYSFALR
Procedure: as §1

NSD2 (T1150A) = molecular target: T3, NSD2 (T1150A) (Homo sapiens, UniProt O96028, T1150A); experiment: Methyltransferase inhibition panel: NSD2 (T1150A)
T3 sequence (O96028 1-1365 T1150A): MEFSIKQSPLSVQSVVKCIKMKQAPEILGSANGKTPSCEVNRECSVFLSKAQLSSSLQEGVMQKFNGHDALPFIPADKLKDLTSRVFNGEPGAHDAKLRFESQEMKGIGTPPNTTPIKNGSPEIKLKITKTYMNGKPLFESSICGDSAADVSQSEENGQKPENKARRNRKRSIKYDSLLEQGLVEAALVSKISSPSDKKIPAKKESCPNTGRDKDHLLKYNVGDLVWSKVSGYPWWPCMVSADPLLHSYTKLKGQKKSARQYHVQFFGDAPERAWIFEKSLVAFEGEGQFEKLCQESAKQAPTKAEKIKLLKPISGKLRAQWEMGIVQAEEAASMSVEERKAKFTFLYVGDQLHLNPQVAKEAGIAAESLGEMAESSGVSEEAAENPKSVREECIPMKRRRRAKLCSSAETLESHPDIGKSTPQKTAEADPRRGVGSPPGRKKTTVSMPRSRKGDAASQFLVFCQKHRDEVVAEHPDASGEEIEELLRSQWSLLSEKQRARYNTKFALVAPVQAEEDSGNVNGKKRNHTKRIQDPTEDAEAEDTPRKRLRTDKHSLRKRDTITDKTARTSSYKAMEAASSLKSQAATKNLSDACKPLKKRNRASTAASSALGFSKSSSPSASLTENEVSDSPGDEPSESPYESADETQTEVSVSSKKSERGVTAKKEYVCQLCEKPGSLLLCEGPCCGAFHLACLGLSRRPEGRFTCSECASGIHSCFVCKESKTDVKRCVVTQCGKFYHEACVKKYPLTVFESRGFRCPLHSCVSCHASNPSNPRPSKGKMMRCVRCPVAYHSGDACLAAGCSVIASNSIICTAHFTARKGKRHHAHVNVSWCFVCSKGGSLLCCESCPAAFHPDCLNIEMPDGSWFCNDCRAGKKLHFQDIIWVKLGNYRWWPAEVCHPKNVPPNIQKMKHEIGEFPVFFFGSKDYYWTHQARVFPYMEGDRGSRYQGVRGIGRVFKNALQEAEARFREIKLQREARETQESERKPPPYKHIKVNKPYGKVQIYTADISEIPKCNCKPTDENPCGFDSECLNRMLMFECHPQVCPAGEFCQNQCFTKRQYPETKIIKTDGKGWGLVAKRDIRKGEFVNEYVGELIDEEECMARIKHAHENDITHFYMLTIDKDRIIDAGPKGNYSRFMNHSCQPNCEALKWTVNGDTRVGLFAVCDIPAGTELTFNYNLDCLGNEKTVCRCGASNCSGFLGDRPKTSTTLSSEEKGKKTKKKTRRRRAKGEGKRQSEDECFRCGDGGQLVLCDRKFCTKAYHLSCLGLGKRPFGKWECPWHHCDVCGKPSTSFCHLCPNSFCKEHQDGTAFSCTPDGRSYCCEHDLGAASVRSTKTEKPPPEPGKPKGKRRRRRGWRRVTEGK
Procedure: as §1

SETDB1 = SETDB1 (Homo sapiens, UniProt Q15047); experiment: Methyltransferase inhibition panel: SETDB1
Procedure: as §1

MLL4 Complex = MLL4 Complex (Homo sapiens, UniProt Q9UMN6); experiment: Methyltransferase inhibition panel: MLL4 Complex
Procedure: as §1

ASH1L = ASH1L (Homo sapiens, UniProt Q9NR48); experiment: Methyltransferase inhibition panel: ASH1L
Procedure: as §1

PRMT1 = PRMT1 (Homo sapiens, UniProt Q99873); experiment: Methyltransferase inhibition panel: PRMT1
Procedure: as §1

MLL2 Complex = MLL2 Complex (Homo sapiens, UniProt O14686); experiment: Methyltransferase inhibition panel: MLL2 Complex
Procedure: as §1

SMYD2 = SMYD2 (Homo sapiens, UniProt Q9NRG4); experiment: Methyltransferase inhibition panel: SMYD2
Procedure: as §1

[1] = read-out: Enzyme % Activity (relative to DMSO controls) Data 1
[2] = read-out: Enzyme % Activity (relative to DMSO controls) Data 2
[3] = NT1721 20 μM, substrate Nucleosomes 0.05 mg/mL

Sequence of MLL2 Complex (O14686 5319-5537): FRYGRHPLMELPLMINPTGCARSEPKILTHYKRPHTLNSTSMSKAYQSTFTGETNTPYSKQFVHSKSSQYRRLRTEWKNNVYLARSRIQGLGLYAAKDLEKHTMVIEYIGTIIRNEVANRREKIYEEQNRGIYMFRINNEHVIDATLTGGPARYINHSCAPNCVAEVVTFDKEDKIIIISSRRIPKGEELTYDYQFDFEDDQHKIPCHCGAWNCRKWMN
Sequence of MLL2 Complex (Q9UBL3 whole entry, further chain): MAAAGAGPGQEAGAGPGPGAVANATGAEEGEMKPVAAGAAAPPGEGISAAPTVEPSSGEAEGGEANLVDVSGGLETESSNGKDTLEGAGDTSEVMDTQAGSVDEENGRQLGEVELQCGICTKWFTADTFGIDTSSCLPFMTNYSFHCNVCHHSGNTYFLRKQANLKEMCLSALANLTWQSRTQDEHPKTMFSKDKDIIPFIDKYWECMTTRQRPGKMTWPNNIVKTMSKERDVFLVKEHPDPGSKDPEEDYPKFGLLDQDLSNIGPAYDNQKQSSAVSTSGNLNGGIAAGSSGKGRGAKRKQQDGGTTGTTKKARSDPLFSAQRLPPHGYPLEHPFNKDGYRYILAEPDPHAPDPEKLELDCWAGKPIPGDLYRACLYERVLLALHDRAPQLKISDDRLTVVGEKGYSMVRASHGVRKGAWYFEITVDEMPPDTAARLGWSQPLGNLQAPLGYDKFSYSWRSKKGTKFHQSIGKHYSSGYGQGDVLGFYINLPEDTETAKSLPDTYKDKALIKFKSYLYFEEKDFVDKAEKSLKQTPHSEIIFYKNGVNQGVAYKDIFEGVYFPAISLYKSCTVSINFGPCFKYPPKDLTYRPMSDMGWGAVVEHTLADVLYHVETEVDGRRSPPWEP
Sequence of MLL2 Complex (Q9C005 whole entry, further chain): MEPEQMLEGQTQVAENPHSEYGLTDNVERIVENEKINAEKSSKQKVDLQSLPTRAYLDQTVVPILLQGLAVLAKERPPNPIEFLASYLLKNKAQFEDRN
Sequence of MLL2 Complex (Q15291 whole entry, further chain): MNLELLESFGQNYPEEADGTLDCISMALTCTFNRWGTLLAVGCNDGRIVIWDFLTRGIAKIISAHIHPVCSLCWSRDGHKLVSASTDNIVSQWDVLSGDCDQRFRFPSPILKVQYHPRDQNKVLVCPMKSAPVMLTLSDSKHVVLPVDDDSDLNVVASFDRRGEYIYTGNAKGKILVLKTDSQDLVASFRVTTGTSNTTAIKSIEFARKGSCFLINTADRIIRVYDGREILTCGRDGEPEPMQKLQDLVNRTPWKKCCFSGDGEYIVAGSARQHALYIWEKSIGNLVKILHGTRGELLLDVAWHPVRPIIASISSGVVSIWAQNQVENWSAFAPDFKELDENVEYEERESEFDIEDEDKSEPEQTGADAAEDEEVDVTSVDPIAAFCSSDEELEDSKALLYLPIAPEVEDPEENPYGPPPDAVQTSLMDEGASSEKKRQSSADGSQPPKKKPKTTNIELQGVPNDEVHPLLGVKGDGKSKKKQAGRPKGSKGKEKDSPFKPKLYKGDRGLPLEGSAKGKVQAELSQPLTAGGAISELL
Sequence of MLL4 Complex (Q9UMN6 2490-2715): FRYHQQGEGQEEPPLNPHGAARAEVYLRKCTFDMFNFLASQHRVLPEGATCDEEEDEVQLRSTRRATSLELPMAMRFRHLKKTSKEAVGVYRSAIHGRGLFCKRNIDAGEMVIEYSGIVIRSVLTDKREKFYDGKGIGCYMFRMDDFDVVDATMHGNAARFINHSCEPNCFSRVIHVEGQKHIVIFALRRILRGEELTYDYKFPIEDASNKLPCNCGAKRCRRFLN
Sequence of MLL4 Complex (Q9C005 whole entry, further chain): as the sequence (Q9C005 whole entry, further chain) above
Sequence of MLL4 Complex (Q9UBL3 whole entry, further chain): as the sequence (Q9UBL3 whole entry, further chain) above
Sequence of MLL4 Complex (Q15291 whole entry, further chain): as the sequence (Q15291 whole entry, further chain) above
Sequence of SMYD2 (Q9NRG4 whole entry): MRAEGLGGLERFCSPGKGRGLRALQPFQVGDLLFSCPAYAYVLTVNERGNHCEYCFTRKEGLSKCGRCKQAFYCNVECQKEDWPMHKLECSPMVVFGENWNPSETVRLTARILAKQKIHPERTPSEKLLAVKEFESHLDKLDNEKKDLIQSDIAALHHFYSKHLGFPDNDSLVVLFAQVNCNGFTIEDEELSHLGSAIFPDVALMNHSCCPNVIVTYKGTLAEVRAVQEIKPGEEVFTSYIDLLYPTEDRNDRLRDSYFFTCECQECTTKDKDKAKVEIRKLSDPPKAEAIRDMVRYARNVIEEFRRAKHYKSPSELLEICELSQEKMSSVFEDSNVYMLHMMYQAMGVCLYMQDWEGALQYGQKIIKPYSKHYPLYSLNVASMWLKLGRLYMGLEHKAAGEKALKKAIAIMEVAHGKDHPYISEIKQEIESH
Sequence of PRMT5 (C449S)/MEP50 (O14744 whole entry C449S): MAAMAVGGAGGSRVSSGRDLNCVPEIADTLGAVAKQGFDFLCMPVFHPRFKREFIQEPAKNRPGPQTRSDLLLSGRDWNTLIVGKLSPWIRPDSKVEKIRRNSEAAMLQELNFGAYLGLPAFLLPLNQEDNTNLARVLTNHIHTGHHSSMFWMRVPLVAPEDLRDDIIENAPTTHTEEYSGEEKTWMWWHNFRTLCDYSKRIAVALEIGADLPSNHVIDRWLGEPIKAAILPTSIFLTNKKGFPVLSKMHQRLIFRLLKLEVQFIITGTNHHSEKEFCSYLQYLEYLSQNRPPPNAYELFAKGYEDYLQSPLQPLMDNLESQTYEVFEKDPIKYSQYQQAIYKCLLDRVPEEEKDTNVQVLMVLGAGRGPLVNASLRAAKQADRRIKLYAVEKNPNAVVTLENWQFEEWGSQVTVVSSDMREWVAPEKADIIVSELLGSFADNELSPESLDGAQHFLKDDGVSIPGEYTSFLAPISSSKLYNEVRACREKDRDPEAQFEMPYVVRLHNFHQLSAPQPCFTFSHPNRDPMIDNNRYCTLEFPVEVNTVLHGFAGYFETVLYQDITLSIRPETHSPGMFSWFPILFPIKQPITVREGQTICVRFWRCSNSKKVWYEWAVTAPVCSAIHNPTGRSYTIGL
Sequence of PRMT5 (C449S)/MEP50 (Q9BQA1 whole entry partner): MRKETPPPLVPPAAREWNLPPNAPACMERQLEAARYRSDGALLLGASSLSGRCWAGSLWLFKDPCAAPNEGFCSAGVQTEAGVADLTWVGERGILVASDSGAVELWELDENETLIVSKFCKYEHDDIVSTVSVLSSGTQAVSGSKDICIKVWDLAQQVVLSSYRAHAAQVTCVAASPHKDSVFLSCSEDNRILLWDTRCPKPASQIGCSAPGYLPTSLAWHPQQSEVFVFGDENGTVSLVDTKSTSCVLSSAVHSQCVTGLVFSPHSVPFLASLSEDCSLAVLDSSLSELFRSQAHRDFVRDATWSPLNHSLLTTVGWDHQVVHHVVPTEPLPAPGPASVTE
Sequence of PRMT1 (Q99873 whole entry): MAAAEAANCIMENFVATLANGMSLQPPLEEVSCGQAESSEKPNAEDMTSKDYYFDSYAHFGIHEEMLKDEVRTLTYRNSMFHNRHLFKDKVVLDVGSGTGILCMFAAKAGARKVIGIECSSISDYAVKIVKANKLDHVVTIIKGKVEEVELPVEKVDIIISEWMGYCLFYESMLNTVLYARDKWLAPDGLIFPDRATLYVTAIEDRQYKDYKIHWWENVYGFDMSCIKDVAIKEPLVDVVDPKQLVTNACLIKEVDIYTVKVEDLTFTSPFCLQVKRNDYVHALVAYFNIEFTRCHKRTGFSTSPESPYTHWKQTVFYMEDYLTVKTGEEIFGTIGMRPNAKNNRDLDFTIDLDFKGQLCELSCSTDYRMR
Sequence of METTL21A (Q8WXB1 whole entry): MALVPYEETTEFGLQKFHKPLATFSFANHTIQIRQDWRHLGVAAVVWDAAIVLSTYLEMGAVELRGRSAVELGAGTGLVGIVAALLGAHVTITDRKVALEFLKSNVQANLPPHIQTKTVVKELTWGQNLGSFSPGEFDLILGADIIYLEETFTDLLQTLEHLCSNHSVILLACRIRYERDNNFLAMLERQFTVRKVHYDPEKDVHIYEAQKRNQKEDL

Question: Which remaining activity at 20 µM (METTL21A; [1]) does the source give for `CN1C(=O)[C@@]23C[C@](C)(C#N)[C@H](c4ccc5c(c4)OCO5)N2C(=O)[C@]1(C)SS3` (racemic) [ETP69, Rac-(3S,6S,7S,8aS)-6-(benzo[d][1,3]dioxol-5-yl)-2,3,7-trimethyl-1,4-dioxohexahydro-6H-3,8a-epidithiopyrrolo[1,2-a]pyrazine-7-carbonitrile] here?
Answer: 78.6%

Question: And the remaining activity at 20 µM (METTL21A; [2])?
Answer: 78.5%

Question: And the remaining activity at 20 µM (PRMT5 (C449S)/MEP50; [1])?
Answer: 121%

Question: What about the remaining activity at 20 µM (PRMT5 (C449S)/MEP50; [2]) of the same compound?
Answer: 123%

Question: What about the remaining activity at 20 µM (SUV39H1; [1]) of the same compound?
Answer: 2.36%

Question: What about the remaining activity at 20 µM (SUV39H1; [2]) of the same compound?
Answer: 2.53%

Question: And the “inhibition relative to DMSO controls” value (SUV39H1; summary of Table 1)?
Answer: at least 7500

Question: And the remaining activity at 20 µM (NRMT1; [1])?
Answer: 90.5%

Question: What about the remaining activity at 20 µM (NRMT1; [2]) of the same compound?
Answer: 94.6%

Question: What about the remaining activity at 20 µM (NSD2 (T1150A); [1]) of the same compound?
Answer: 23.9%

Question: And the remaining activity at 20 µM (NSD2 (T1150A); [2])?
Answer: 25.5%

Question: And the “inhibition relative to DMSO controls” value (NSD2 (T1150A); summary of Table 1)?
Answer: at least 7500

Question: What about the remaining activity at 20 µM (SETDB1; [1]) of the same compound?
Answer: 40.1%

Question: What about the remaining activity at 20 µM (SETDB1; [2]) of the same compound?
Answer: 37.1%

Question: What about the “inhibition relative to DMSO controls” value (SETDB1; summary of Table 1) of the same compound?
Answer: at least 7500

Question: And the remaining activity at 20 µM (MLL4 Complex; [1])?
Answer: 1.32%

Question: And the remaining activity at 20 µM (MLL4 Complex; [2])?
Answer: 1.17%

Question: What about the “inhibition relative to DMSO controls” value (MLL4 Complex; summary of Table 1) of the same compound?
Answer: at least 7500

Question: And the “Enzyme % Activity (relative to DMSO controls) Data 1” value (ASH1L; [3])?
Answer: 3.42%

Question: What about the “Enzyme % Activity (relative to DMSO controls) Data 2” value (ASH1L; [3]) of the same compound?
Answer: 4.17%

Question: What about the “inhibition relative to DMSO controls” value (ASH1L; summary of Table 1) of the same compound?
Answer: at least 7500

Question: What about the remaining activity at 20 µM (PRMT1; [1]) of the same compound?
Answer: 114%

Question: What about the remaining activity at 20 µM (PRMT1; [2]) of the same compound?
Answer: 115%

Question: And the remaining activity at 20 µM (MLL2 Complex; [1])?
Answer: 19%

Question: What about the remaining activity at 20 µM (MLL2 Complex; [2]) of the same compound?
Answer: 20.4%

Question: And the “inhibition relative to DMSO controls” value (MLL2 Complex; summary of Table 1)?
Answer: at least 7500

Question: What about the remaining activity at 20 µM (SMYD2; [1]) of the same compound?
Answer: 4.23%

Question: What about the remaining activity at 20 µM (SMYD2; [2]) of the same compound?
Answer: 4.97%

Question: And the “inhibition relative to DMSO controls” value (SMYD2; summary of Table 1)?
Answer: at least 7500
